Assay results: PubChem BioAssay (NCI)
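Protocol summary: plate cells (96-well), add compound at 5 concentrations, incubate 48 h, interpolate endpoints linearly. TGI: concentration producing complete growth inhibition.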

Tests used:
Assay in all cases: NCI-60 cell line screen, 48 h
NCI-H522 lung = tested on: NCI-H522 lung
SK-MEL-5 melanoma = tested on: SK-MEL-5 melanoma
RPMI-8226 leukemia = tested on: RPMI-8226 leukemia
M14 melanoma = tested on: M14 melanoma
HS 578T breast = tested on: HS 578T breast
SF-539 CNS = tested on: SF-539 CNS
SNB-75 CNS = tested on: SNB-75 CNS
HCT-15 colon = tested on: HCT-15 colon
OVCAR-5 ovarian = tested on: OVCAR-5 ovarian
HT29 colon = tested on: HT29 colon
MDA-MB-231 breast = tested on: MDA-MB-231 breast
PC-3 prostate = tested on: PC-3 prostate
COLO 205 colon = tested on: COLO 205 colon
HOP-92 NSCLC = tested on: HOP-92 NSCLC
HCT-116 colon = tested on: HCT-116 colon
HCC-2998 colon = tested on: HCC-2998 colon
UACC-62 melanoma = tested on: UACC-62 melanoma
EKVX NSCLC = tested on: EKVX NSCLC
TK-10 renal = tested on: TK-10 renal
MDA-MB-435 = tested on: MDA-MB-435
MCF7 breast = tested on: MCF7 breast
SF-268 CNS = tested on: SF-268 CNS
CAKI-1 renal = tested on: CAKI-1 renal
IGROV1 ovarian = tested on: IGROV1 ovarian
NCI/ADR-RES ovarian = tested on: NCI/ADR-RES ovarian
OVCAR-8 ovarian = tested on: OVCAR-8 ovarian
MALME-3M melanoma = tested on: MALME-3M melanoma
HL-60(TB) leukemia = tested on: HL-60(TB) leukemia
SK-MEL-28 melanoma = tested on: SK-MEL-28 melanoma
ACHN renal = tested on: ACHN renal
CCRF-CEM leukemia = tested on: CCRF-CEM leukemia
U251 CNS = tested on: U251 CNS
T-47D breast = tested on: T-47D breast
UACC-257 melanoma = tested on: UACC-257 melanoma
SW-620 colon = tested on: SW-620 colon
SNB-19 CNS = tested on: SNB-19 CNS
DU-145 prostate = tested on: DU-145 prostate
786-0 renal = tested on: 786-0 renal
A498 renal = tested on: A498 renal
SK-MEL-2 melanoma = tested on: SK-MEL-2 melanoma
NCI-H226 lung = tested on: NCI-H226 lung
SN12C renal = tested on: SN12C renal
LOX IMVI melanoma = tested on: LOX IMVI melanoma
NCI-H23 lung = tested on: NCI-H23 lung
A549 NSCLC = tested on: A549 NSCLC
SR leukemia = tested on: SR leukemia
UO-31 renal = tested on: UO-31 renal
SK-OV-3 ovarian = tested on: SK-OV-3 ovarian
RXF 393 renal = tested on: RXF 393 renal
SF-295 CNS = tested on: SF-295 CNS

Q: Which results are given for `N#Cc1c(N)oc(-c2cccc([N+](=O)[O-])c2)c1C#N`?
A: TGI (NCI-H522 lung): 59.1 µM; TGI (SK-MEL-5 melanoma): 37.7 µM; TGI (RPMI-8226 leukemia): 59.8 µM; TGI (M14 melanoma): > 100 µM; TGI (HS 578T breast): > 100 µM; TGI (SF-539 CNS): 57.2 µM; TGI (SNB-75 CNS): 98.2 µM; TGI (HCT-15 colon): 30.7 µM; TGI (OVCAR-5 ovarian): > 100 µM; TGI (HT29 colon): 37.6 µM; TGI (MDA-MB-231 breast): > 100 µM; TGI (PC-3 prostate): > 100 µM; TGI (COLO 205 colon): 44.7 µM; TGI (HOP-92 NSCLC): 37.7 µM; TGI (HCT-116 colon): > 100 µM; TGI (HCC-2998 colon): 33.6 µM; TGI (UACC-62 melanoma): > 100 µM; TGI (EKVX NSCLC): > 100 µM; TGI (TK-10 renal): 49.7 µM; TGI (MDA-MB-435): > 100 µM; TGI (MCF7 breast): > 100 µM; TGI (SF-268 CNS): > 100 µM; TGI (CAKI-1 renal): 43.6 µM; TGI (IGROV1 ovarian): 65.3 µM; TGI (NCI/ADR-RES ovarian): > 100 µM; TGI (OVCAR-8 ovarian): 44.1 µM; TGI (MALME-3M melanoma): 61.6 µM; TGI (HL-60(TB) leukemia): 65.1 µM; TGI (SK-MEL-28 melanoma): 39.5 µM; TGI (ACHN renal): 34.8 µM; TGI (CCRF-CEM leukemia): > 100 µM; TGI (U251 CNS): 94.5 µM; TGI (T-47D breast): > 100 µM; TGI (UACC-257 melanoma): 48.9 µM; TGI (SW-620 colon): 62 µM; TGI (SNB-19 CNS): 74.6 µM; TGI (DU-145 prostate): > 100 µM; TGI (786-0 renal): 68.3 µM; TGI (A498 renal): 61.7 µM; TGI (SK-MEL-2 melanoma): > 100 µM; TGI (NCI-H226 lung): > 100 µM; TGI (SN12C renal): 90.6 µM; TGI (LOX IMVI melanoma): 85.6 µM; TGI (NCI-H23 lung): 44 µM; TGI (A549 NSCLC): > 100 µM; TGI (SR leukemia): > 100 µM; TGI (UO-31 renal): 30.8 µM; TGI (SK-OV-3 ovarian): > 100 µM; TGI (RXF 393 renal): 57.3 µM; TGI (SF-295 CNS): > 100 µM
